Measurements from patent publication US8598131B2, “Method for treatment of lung infections by administration of aminoglycosides by aerolisation” (priority 2010, dated 2013).

Tests used:
[1] = Gamma scintigraphy lung deposition, two way crossover study; settings: standard treatment, 300 mg using 5 mL in a Pari nebulizer
[2] = Safety assessment in the clinical study (adverse events, local irritation); format: in vivo; settings: 180 mg Tobramycin per ml, healthy subjects
Method: According to one aspect of the present disclosure, a pharmaceutical solution comprising 180 mg Tobramycin per ml water is used. This corresponds to approximately 3 fold the concentration of the solution in the marketed product (TOBI®). Tobramycin at 60 mg/mL is known to be well tolerated in healthy volunteers even at higher total dose levels; however it is considered that this increase in concentration potentially increases the risk of local irritation, but is not considered to be the primary driver for systemic exposure or systemic side effects in this study since the total dose level is lower.
Safety was assessed as well by reviewing adverse events data and vital signs data including pulse oximetry and spirometry data.

- dose reaching the lungs [1]: approx. 10%
Compound: NCC1OC(OC2C(N)CC(N)C(OC3OC(CO)C(O)C(N)C3O)C2O)C(N)CC1O [Tobramycin, (2S,3R,4S,5S,6R)-4-amino-2-{[(1S,2S,3R,4S,6R)-4,6-diamino-3-{[2R,3R,5S,6R)-3-amino-6-(aminomethyl)-5-hydroxyoxan-2-yl]oxy}-2-(hydroxymethylcyclohexyl]oxy)-6-(hydroxymethyl)oxane-3,5-diol]
- local irritation [2]: only a few incidents of local irritation
